The source of these data is patent US20240109881A1, “Heteroaryl Compounds as Ligand Directed Degraders of IRAK4” (Bristol-Myers Squibb Company, priority 2022, published 2024).

For the assay, the target named is T1, IRAK4 (Homo sapiens, UniProt Q9NWZ3).
T1 construct: endogenous in cells; host or cells: THP-1 cells
T1 sequence (Q9NWZ3 1-460): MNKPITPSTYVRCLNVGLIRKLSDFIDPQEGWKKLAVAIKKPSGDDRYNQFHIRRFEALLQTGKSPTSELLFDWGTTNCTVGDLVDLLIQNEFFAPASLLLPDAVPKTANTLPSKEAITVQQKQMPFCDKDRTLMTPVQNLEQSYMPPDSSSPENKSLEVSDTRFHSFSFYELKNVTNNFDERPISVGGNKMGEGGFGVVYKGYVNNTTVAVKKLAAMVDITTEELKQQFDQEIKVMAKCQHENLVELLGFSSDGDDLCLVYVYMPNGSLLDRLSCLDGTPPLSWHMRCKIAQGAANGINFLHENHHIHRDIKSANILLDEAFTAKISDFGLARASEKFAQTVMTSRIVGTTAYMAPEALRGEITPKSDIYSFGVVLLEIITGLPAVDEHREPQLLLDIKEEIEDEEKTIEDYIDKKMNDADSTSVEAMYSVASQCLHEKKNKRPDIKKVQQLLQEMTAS
Put plainly: ALE THP1 HTRF (Advanced Lipoxidation End Product THP1 Homogeneous Time Resolved Fluorescence). It is filed as cell-based. The following applies: THP1 cells. The procedure, abridged: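 Cells lysed 45 min at room temperature; lysates normalized to total protein by BCA. Total IRAK4 detected by HTRF sandwich (anti-IRAK4-d2 plus anti-IRAK4-cryptate), incubated overnight in the dark at room temperature, read on a time-resolved fluorescence plate reader.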
Background: TR-FRET usually uses a lanthanide donor and a delayed reading to cut background.
Take `CN(CC1CCN(c2ccc(C3CCC(=O)NC3=O)cc2)CC1)[C@H]1CC[C@H](NC(=O)c2cnc(-n3ncc4cc(C#N)cnc43)cc2NC2CC2)CC1` (stereo partly shown) [P-103, 6-(5-cyanopyrazolo[3,4-b]pyridin-1-yl)-4-(cyclopropylamino)-N-[4-[[1-[4-(2,6-dioxo-3-piperidyl)phenyl]-4-piperidyl]methyl-methyl-amino]cyclohexyl]pyridine-3-carboxamide]: the “ALE THP1 HTRF YMIN” value was found to be 16.2% and the EC50 (in general, the concentration at which the effect is half-maximal) came to 29 nM.
As to `N#Cc1cnc2c(cnn2-c2cc(NC3CC3)c(C(=O)N[C@H]3CC[C@H](C(F)(F)CN4CCN(c5ccc(C6CCC(=O)NC6=O)cc5)CC4)CC3)cn2)c1` (stereo partly shown) [P-104, 6-(5-cyanopyrazolo[3,4-b]pyridin-1-yl)-4-(cyclopropylamino)-N-[4-[2-[4-[4-(2,6-dioxo-3-piperidyl)phenyl]piperazin-1-yl]-1,1-difluoro-ethyl]cyclohexyl]pyridine-3-carboxamide], the “ALE THP1 HTRF YMIN” value is 16.0% and the EC50 was determined as 47 nM.
Taken in the same sequence, the figures for `N#Cc1cnc2c(cnn2-c2cc(NCC3CC3)c(C(=O)N[C@H]3CC[C@H](CCN4CCN(c5ccc(C6CCC(=O)NC6=O)cc5)CC4)CC3)cn2)c1` (stereo partly shown) [P-105] were 11.5% and 76 nM.
Taken in the same sequence, the figures for `N#Cc1cnc2c(cnn2-c2cc(NC[C@H]3CCCO3)c(C(=O)N[C@H]3CC[C@H](CCN4CCN(c5ccc(C6CCC(=O)NC6=O)cc5)CC4)CC3)cn2)c1` (stereo partly shown) [P-106] were 17.5% and 246 nM.
As for `CCCNc1cc(-n2ncc3cc(C#N)cnc32)ncc1C(=O)N[C@H]1CC[C@H](CCN2CCN(c3ccc(C4CCC(=O)NC4=O)cc3)CC2)CC1` (stereo partly shown) [P-107], the “ALE THP1 HTRF YMIN” value was determined as 9.1% and the concentration for a half-maximal effect (EC50) amounted to 14 nM.
As to `CC(C)(O)CNc1cc(-n2ncc3cc(C#N)cnc32)ncc1C(=O)N[C@H]1CC[C@H](CCN2CCN(c3ccc(C4CCC(=O)NC4=O)cc3)CC2)CC1` (stereo partly shown) [P-108], the “ALE THP1 HTRF YMIN” value is recorded as 11.0% and the EC50 was 32 nM.
The corresponding values for `N#Cc1cnn2c(-c3cc(NC4CC4)c(C(=O)N[C@H]4CC[C@H](CCN5CCN(c6ccc(C7CCC(=O)NC7=O)cc6)CC5)CC4)cn3)ccc2c1` (stereo partly shown) [P-109] are 10.7% and 8 nM.
Taken in the same sequence, the figures for `N#Cc1cnc2c(cnn2-c2cc(NCC(F)(F)F)c(C(=O)N[C@H]3CC[C@H](CCN4CCN(c5ccc(C6CCC(=O)NC6=O)cc5)CC4)CC3)cn2)c1` (stereo partly shown) [P-112] were 8.7% and 23 nM.
Taken in the same sequence, the figures for `N#Cc1cnc2c(cnn2-c2cc(NCC3CCCO3)c(C(=O)N[C@H]3CC[C@H](CCN4CCN(c5ccc(C6CCC(=O)NC6=O)cc5)CC4)CC3)cn2)c1` (stereo partly shown) [P-113] were 18.7% and 74 nM.
On to `O=C1CCC(c2ccc(N3CCN(CC[C@H]4CC[C@H](NC(=O)c5cnc(-n6ncc7cc(Cl)cnc76)cc5NC5CC5)CC4)CC3)cc2)C(=O)N1` (stereo partly shown) [P-114], for which the “ALE THP1 HTRF YMIN” value is given as 46.1% and the concentration giving a half-maximal response (EC50) was more than 5000 nM.
As for `CC(C)(C#N)Nc1cc(-n2ncc3cc(C#N)cnc32)ncc1C(=O)N[C@H]1CC[C@H](CCN2CCN(c3ccc(C4CCC(=O)NC4=O)cc3)CC2)CC1` (stereo partly shown) [P-115], the “ALE THP1 HTRF YMIN” value worked out at 38.9% and the concentration giving a half-maximal response (EC50) is more than 5000 nM.
As to `C[C@H]1CN(c2ccc(C3CCC(=O)NC3=O)cc2)C[C@H](C)N1CC[C@H]1CC[C@H](NC(=O)c2cnc(-n3ncc4cc(C#N)cnc43)cc2NC2CC2)CC1` (stereo partly shown) [P-116], the “ALE THP1 HTRF YMIN” value amounted to 8.3% and the response was half-maximal at 7 nM (EC50).
The corresponding values for `O=C1CCC(c2ccc(N3CCN(CC[C@H]4CC[C@H](NC(=O)c5cnc(-n6ncc7cncnc76)cc5NC5CC5)CC4)CC3)cc2)C(=O)N1` (stereo partly shown) [P-117] are 13.6% and 33 nM.
The corresponding values for `N#Cc1cnc2c(cnn2-c2cc(NCCC(F)(F)F)c(C(=O)N[C@H]3CC[C@H](CCN4CCN(c5ccc(C6CCC(=O)NC6=O)cc5)CC4)CC3)cn2)c1` (stereo partly shown) [P-118] are 9.9% and 34 nM.
The corresponding values for `CCC1(Nc2cc(-n3ncc4cc(C#N)cnc43)ncc2C(=O)N[C@H]2CC[C@H](CCN3CCN(c4ccc(C5CCC(=O)NC5=O)cc4)CC3)CC2)CC1` (stereo partly shown) [P-119] are 8.3% and 25 nM.
Take `C[C@@H]1CN(CC[C@H]2CC[C@H](NC(=O)c3cnc(-n4ncc5cc(C#N)cnc54)cc3NC3CC3)CC2)CCN1c1ccc(C2CCC(=O)NC2=O)cc1` (stereo partly shown) [P-120]: the “ALE THP1 HTRF YMIN” value is on record as 7.2% and the EC50 is 15 nM.
For `C[C@H]1CN(CC[C@H]2CC[C@H](NC(=O)c3cnc(-n4ncc5cc(C#N)cnc54)cc3NC3CC3)CC2)CCN1c1ccc(C2CCC(=O)NC2=O)cc1` (stereo partly shown) [P-121], the “ALE THP1 HTRF YMIN” value is 11.0% and the EC50 worked out at 13 nM.
For the molecule `N#Cc1cnc2c(cnn2-c2cc(NC3(C#N)CC3)c(C(=O)N[C@H]3CC[C@H](CCN4CCN(c5ccc(C6CCC(=O)NC6=O)cc5)CC4)CC3)cn2)c1` (stereo partly shown) [P-122], the “ALE THP1 HTRF YMIN” value is reported as 10.4% and the half-maximal effective concentration (EC50) was 80 nM.
Take `N#Cc1cnn2c(-c3cc(NC4CC4)c(C(=O)N[C@H]4CC[C@H](CCN5CCN(c6ccc(C7CCC(=O)NC7=O)cc6)CC5)CC4)cn3)cnc2c1` (stereo partly shown) [P-123]: the “ALE THP1 HTRF YMIN” value is listed as 24.4% and the EC50 came out at 62 nM.
With `N#Cc1cnc2c(cnn2-c2cc(NC3CC3)c(C(=O)N[C@H]3CC[C@H](CCN4CC5(C4)CN(c4ccc(C6CCC(=O)NC6=O)cc4)C5)CC3)cn2)c1` (stereo partly shown) [P-124], the “ALE THP1 HTRF YMIN” value stood at 19.2% and a half-maximal response (EC50) required 46 nM.
`CN(C[C@H]1CC[C@H](NC(=O)c2cnc(-n3ncc4cc(C#N)cnc43)cc2NC2CC2)CC1)C1CCN(c2ccc3c(c2)CN(C2CCC(=O)NC2=O)C3=O)CC1` (stereo partly shown) [P-127]: the “ALE THP1 HTRF YMIN” value was 24.5% and the concentration giving a half-maximal response (EC50) amounted to 8 nM.
Taken in the same sequence, the figures for `N#Cc1cnc2c(cnn2-c2cc(NC3CC3)c(C(=O)N[C@H]3CC[C@H](C(=O)NC4CCN(c5ccc6c(c5)CN(C5CCC(=O)NC5=O)C6=O)CC4)CC3)cn2)c1` (stereo partly shown) [P-129] were 24.2% and 47 nM.
The corresponding values for `N#Cc1cnc2c(cnn2-c2cc(NC3CC3)c(C(=O)N[C@H]3CC[C@H](CN4CCC5(CCN(c6ccc7c(c6)CN(C6CCC(=O)NC6=O)C7=O)CC5)C4)CC3)cn2)c1` (stereo partly shown) [P-130] are 20.0% and 15 nM.
Taken in the same sequence, the figures for `N#Cc1cc2cnn(-c3cc(NC4CC4)c(C(=O)N[C@H]4CC[C@H](CCN5CCN(c6ccc(C7CCC(=O)NC7=O)cc6)CC5)CC4)cn3)c2nc1N` (stereo partly shown) [P-131] were 5.3% and 3 nM.
Consider `CS(=O)(=O)N1CCC(Nc2cc(-n3ncc4cc(C#N)cnc43)ncc2C(=O)N[C@H]2CC[C@H](CCN3CCN(c4ccc(C5CCC(=O)NC5=O)cc4)CC3)CC2)CC1` (stereo partly shown) [P-132], for which the “ALE THP1 HTRF YMIN” value stood at 7.9% and a half-maximal effect (EC50) was put at 13 nM.
The corresponding values for `CS(=O)(=O)N1CCC(Nc2cc(-n3ncc4cc(C#N)c(N)nc43)ncc2C(=O)N[C@H]2CC[C@H](CCN3CCN(c4ccc(C5CCC(=O)NC5=O)cc4)CC3)CC2)CC1` (stereo partly shown) [P-133] are 6.9% and 10 nM.
The corresponding values for `CC(C)Nc1cc(Nc2ccc(C#N)cc2Cl)ncc1C(=O)N[C@H]1CC[C@H](CCN2CCN(c3ccc(C4CCC(=O)NC4=O)cc3)CC2)CC1` (stereo partly shown) [P-134] are 20.9% and 94 nM.
In the case of `C[C@H](C#N)Nc1cc(-n2ncc3cc(C#N)c(N)nc32)ncc1C(=O)N[C@H]1CC[C@H](CCN2CCN(c3ccc(C4CCC(=O)NC4=O)cc3)CC2)CC1` (stereo partly shown) [P-135], the “ALE THP1 HTRF YMIN” value was found to be 7.3% and the EC50 is 1 nM.
The corresponding values for `C[C@H](C#N)Nc1cc(-n2ncc3cc(C#N)cnc32)ncc1C(=O)N[C@H]1CC[C@H](CCN2CCN(c3ccc(C4(C)CCC(=O)NC4=O)cc3)CC2)CC1` (stereo partly shown) [P-136] are 7.4% and 6 nM.
The corresponding values for `N#Cc1cnc2c(cnn2-c2cc(NC3CCC(C(N)=O)CC3)c(C(=O)N[C@H]3CC[C@H](CCN4CCN(c5ccc(C6CCC(=O)NC6=O)cc5)CC4)CC3)cn2)c1` (stereo partly shown) [P-137] are 7.7% and 18 nM.
With `CCNc1cc(Nc2ccc3ncc(F)cc3n2)ncc1C(=O)N[C@H]1CC[C@H](CCN2CCN(c3ccc(C4CCC(=O)NC4=O)cc3)CC2)CC1` (stereo partly shown) [P-138], the “ALE THP1 HTRF YMIN” value came out at 42.1% and the EC50 came out at 1280 nM.
`CC1(Nc2cc(-n3ncc4cc(C#N)cnc43)ncc2-n2cc([C@H]3CC[C@H](CCN4CCN(c5ccc(C6CCC(=O)NC6=O)cc5)CC4)CC3)nn2)CC1` (stereo partly shown) [P-140]: the “ALE THP1 HTRF YMIN” value turned out to be 6.4% and it took 30 nM to reach a half-maximal effect (EC50).
The corresponding values for `O=C1CCC(c2ccc(N3CCN(CC[C@H]4CC[C@H](NC(=O)c5cnc(Nc6ccc7[nH]c(=O)sc7c6)cc5NC5CC5)CC4)CC3)cc2)C(=O)N1` (stereo partly shown) [P-141] are 6.1% and less than 1 nM.
The corresponding values for `C[C@H](C#N)Nc1cc(-n2ncc3cc(C#N)c(N)nc32)ncc1C(=O)N[C@H]1CC[C@H](CCN2CCN(c3ccc(C4CCC(=O)NC4=O)cc3)[C@H](C)C2)CC1` (stereo partly shown) [P-142] are 9.7% and 46 nM.
For `C[C@H](C#N)Nc1cc(-n2ncc3cc(C#N)cnc32)ncc1C(=O)N[C@H]1CC[C@H](CCN2CCC(c3ccc(C4CCC(=O)NC4=O)cc3)CC2)CC1` (stereo partly shown) [P-143], the “ALE THP1 HTRF YMIN” value came to 6.5% and the EC50 was found to be 4 nM.
